Test results from ChEMBL document CHEMBL1156642, “Discovery of betamethasone 17alpha-carbamates as dissociated glucocorticoid receptor modulators in the rat” (Bioorg Med Chem, 2008).

target: T1, Glucocorticoid receptor (Homo sapiens, UniProt P04150)
T1 sequence (P04150 whole entry): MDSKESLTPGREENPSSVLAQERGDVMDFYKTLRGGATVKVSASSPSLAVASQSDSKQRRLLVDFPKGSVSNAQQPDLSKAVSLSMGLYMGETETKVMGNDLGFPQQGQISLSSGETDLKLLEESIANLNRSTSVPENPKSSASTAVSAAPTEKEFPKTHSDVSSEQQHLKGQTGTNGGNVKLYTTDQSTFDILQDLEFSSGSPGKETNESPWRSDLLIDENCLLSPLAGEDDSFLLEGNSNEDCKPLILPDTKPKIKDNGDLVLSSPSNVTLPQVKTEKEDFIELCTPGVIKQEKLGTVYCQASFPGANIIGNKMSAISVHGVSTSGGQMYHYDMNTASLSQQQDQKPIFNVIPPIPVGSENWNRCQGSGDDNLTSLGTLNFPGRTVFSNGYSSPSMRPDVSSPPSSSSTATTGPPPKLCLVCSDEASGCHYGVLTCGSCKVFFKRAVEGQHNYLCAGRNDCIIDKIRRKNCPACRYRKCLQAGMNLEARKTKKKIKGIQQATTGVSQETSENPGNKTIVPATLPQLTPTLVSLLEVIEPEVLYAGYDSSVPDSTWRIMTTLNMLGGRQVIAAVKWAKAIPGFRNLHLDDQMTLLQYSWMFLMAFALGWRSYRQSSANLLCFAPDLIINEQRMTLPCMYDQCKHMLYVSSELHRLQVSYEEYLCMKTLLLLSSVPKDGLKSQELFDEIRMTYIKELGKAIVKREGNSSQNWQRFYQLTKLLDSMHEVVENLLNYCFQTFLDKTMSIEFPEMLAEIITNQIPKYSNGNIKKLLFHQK
Description: Inhibition of human glucocorticoid receptor

| SMILES | IC50 [nM] |
| --- | --- |
| CCCCNC(=O)O[C@]1(C(=O)CO)[C@@H](C)C[C@H]2[C@@H]3CCC4=CC(=O)C=C[C@]4(C)[C@@]3(F)[C@@H](O)C[C@@]21C | 2.8 |
| C[C@H]1C[C@H]2[C@@H]3CCC4=CC(=O)C=C[C@]4(C)[C@@]3(F)[C@@H](O)C[C@]2(C)[C@@]1(OC(=O)NCC(C)(C)C)C(=O)CO | 352 |
| CC(C)NC(=O)O[C@]1(C(=O)CO)[C@@H](C)C[C@H]2[C@@H]3CCC4=CC(=O)C=C[C@]4(C)[C@@]3(F)[C@@H](O)C[C@@]21C | 21.5 |
| C[C@H]1C[C@H]2[C@@H]3CCC4=CC(=O)C=C[C@]4(C)[C@@]3(F)[C@@H](O)C[C@]2(C)[C@@]1(OC(=O)NC12CC3CC(CC(C3)C1)C2)C(=O)CO | 5.8 |

target: T2, Progesterone receptor (Homo sapiens, UniProt P06401); test: Inhibition of human progesterone receptor
T2 sequence (P06401 whole entry): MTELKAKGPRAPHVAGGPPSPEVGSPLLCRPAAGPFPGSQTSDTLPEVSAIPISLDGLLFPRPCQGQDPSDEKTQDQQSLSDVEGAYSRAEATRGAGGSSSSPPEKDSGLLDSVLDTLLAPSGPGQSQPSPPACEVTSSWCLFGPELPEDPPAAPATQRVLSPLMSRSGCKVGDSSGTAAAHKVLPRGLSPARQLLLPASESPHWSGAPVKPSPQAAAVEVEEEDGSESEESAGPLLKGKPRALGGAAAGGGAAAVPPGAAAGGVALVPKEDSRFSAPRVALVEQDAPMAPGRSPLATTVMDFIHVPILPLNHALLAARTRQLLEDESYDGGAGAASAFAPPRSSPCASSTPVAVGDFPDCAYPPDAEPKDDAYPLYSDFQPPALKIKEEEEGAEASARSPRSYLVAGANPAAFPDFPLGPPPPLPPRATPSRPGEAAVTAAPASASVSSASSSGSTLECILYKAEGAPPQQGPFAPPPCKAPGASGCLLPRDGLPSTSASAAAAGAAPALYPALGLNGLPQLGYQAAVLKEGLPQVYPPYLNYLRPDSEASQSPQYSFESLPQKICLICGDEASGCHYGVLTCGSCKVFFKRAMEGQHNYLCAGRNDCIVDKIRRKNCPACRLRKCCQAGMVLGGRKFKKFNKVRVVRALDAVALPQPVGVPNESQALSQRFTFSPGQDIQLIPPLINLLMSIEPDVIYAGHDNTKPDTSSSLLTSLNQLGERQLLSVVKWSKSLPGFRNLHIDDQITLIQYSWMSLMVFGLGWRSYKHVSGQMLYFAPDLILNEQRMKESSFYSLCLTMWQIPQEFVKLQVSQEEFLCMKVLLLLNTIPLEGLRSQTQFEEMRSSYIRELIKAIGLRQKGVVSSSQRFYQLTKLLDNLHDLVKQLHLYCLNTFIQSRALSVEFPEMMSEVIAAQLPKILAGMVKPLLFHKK

| SMILES | IC50 [nM] |
| --- | --- |
| C[C@H]1C[C@H]2[C@@H]3CCC4=CC(=O)C=C[C@]4(C)[C@@]3(F)[C@@H](O)C[C@]2(C)[C@@]1(OC(=O)NC1CCCCC1)C(=O)CO | 120 |

target: T3, Interstitial collagenase (Homo sapiens) (UniProt P03956); test: Inhibition of glucocorticoid-mediated human MMP1 expression in PMA stimulated A549 cells assessed as MMP1 protein level by ELISA relative to Dexamethasone; format: cell-based; design: scale not given: the % may be the effect or the level left
T3 sequence (whole entry): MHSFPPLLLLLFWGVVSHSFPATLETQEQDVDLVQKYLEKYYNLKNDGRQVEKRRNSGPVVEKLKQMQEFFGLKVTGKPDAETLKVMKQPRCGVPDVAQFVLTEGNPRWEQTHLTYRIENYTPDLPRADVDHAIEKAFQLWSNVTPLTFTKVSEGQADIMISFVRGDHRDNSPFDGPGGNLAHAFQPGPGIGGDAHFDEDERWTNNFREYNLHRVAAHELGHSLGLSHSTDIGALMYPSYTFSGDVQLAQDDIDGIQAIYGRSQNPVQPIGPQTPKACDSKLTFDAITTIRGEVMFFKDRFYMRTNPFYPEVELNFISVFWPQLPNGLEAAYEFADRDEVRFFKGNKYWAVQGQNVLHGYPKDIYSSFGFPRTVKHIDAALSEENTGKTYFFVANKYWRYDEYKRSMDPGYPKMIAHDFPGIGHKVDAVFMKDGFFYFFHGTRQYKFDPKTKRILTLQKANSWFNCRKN

| SMILES | Activity [%] |
| --- | --- |
| CCCCNC(=O)O[C@]1(C(=O)CO)[C@@H](C)C[C@H]2[C@@H]3CCC4=CC(=O)C=C[C@]4(C)[C@@]3(F)[C@@H](O)C[C@@]21C | 98 |
| C[C@H]1C[C@H]2[C@@H]3CCC4=CC(=O)C=C[C@]4(C)[C@@]3(F)[C@@H](O)C[C@]2(C)[C@@]1(OC(=O)NCC(C)(C)C)C(=O)CO | 44.7 |
| CC(C)NC(=O)O[C@]1(C(=O)CO)[C@@H](C)C[C@H]2[C@@H]3CCC4=CC(=O)C=C[C@]4(C)[C@@]3(F)[C@@H](O)C[C@@]21C | 105 |
| C[C@H]1C[C@H]2[C@@H]3CCC4=CC(=O)C=C[C@]4(C)[C@@]3(F)[C@@H](O)C[C@]2(C)[C@@]1(OC(=O)NC1CCCCC1)C(=O)CO | 82 |
| C[C@H]1C[C@H]2[C@@H]3CCC4=CC(=O)C=C[C@]4(C)[C@@]3(F)[C@@H](O)C[C@]2(C)[C@@]1(OC(=O)NC12CC3CC(CC(C3)C1)C2)C(=O)CO | 84.1 |

species: Rattus norvegicus; test: Transactivation activity of glutamine synthase in rat skeletal muscle cells relative to Dexamethasone; format: cell-based

| SMILES | Activity [%] |
| --- | --- |
| CCCCNC(=O)O[C@]1(C(=O)CO)[C@@H](C)C[C@H]2[C@@H]3CCC4=CC(=O)C=C[C@]4(C)[C@@]3(F)[C@@H](O)C[C@@]21C | 31.3 |
| CC(C)NC(=O)O[C@]1(C(=O)CO)[C@@H](C)C[C@H]2[C@@H]3CCC4=CC(=O)C=C[C@]4(C)[C@@]3(F)[C@@H](O)C[C@@]21C | 26 |
| C[C@H]1C[C@H]2[C@@H]3CCC4=CC(=O)C=C[C@]4(C)[C@@]3(F)[C@@H](O)C[C@]2(C)[C@@]1(OC(=O)NC1CCCCC1)C(=O)CO | 24.7 |
